# Experimental data taken from US20100115635A1, “Methods for Assessing the Delivery of Exogenous Agents” (Abbott Laboratories, priority 2007, published 2010).
# Test system: MDA-tetR-ODC/Luc liver tumors
# Assay: bioluminescence imaging of MDA-tetR-ODC/Luc liver tumors
# Assay type: in vivo, mice
# Settings: 4 days after doxycycline treatment
# Text: A MDA-tetR-ODC/Luc cell line was created from MDA-MB435-SLM-derived cell line with a stably integrated tetR-ODC expression cassette and a tet-responsive firefly luciferase reporter. FIG. 6A). The MDA-tetR-ODC/Luc cells were inoculated into skid mice to establish liver tumors. The mice were imaged before doxycycline treatment (top panel of FIG. 6A) or 4 days after doxycycline treatment (bottom panel of FIG. 6A). […] FIG. 6B) Monitoring target knockdown in the MDA-tetR-ODC/Luc cell-derived liver tumors using imaging. The MDA-tetR-ODC/Luc cells were inoculated into skid mice to establish liver tumors. […] Mice were imaged before dosing and 2 days after the last dose. […] The mice were imaged before doxycycline treatment (top panel of FIG. 6B) or 4 days after doxycycline treatment (bottom panel of FIG. 6B).
compound,measurement,value
C[C@H]1c2cccc(O)c2C(=O)C2=C(O)[C@]3(O)C(=O)C(C(N)=O)=C(O)[C@@H](N(C)C)[C@@H]3[C@@H](O)[C@@H]21 [doxycycline],increase of luminescent signal compared to untreated mice,more than 100 fold
